Reference: patent publication US6844429B2, “Fullerene derivative and composition comprising the same” (San-Ei Gen F.F.I., priority 2001, dated 2005)

Legend:
[1] = Quantum yield measurement of singlet oxygen (DPBF absorbance decay under light irradiation); type: physicochemical; conditions: singlet oxygen quantum yield relative to tetraphenylporphyrin; DMSO, 27° C., 6.5×10^−7 M fullerene derivative, DPBF absorbance at 418 nm
Experimental: A DMSO solution containing 5.5×10^−5 M of 1,3-diphenylisobenzofuran (DPBF) was prepared, maintaining the water temperature in a waterbath at 27° C. 3 mL of the DMSO solution was poured into a quartz cell and a DMSO solution containing 1.5×10^−5 M of fullerene derivatives was added so that the concentration of the resulting solution is set to 6.5×10^−7 M. Subsequently, oxygen was bubbled through the solution for one minute or more. The cell was set in position within the waterbath, stirred using a multistirrer and irradiated with light every ten seconds to measure the absorbance of the DPBF at 418 nm. Natural logarithm of the absorbance thus measured was plotted against time of light irradiation to find the gradient. Thus, a relative scale with respect to the quantum yield of tetraphenylporphyrin (φ^1O2) was calculated.

HeLa cells = experiment: Phototoxicity test: viability of HeLa cells by MTT assay, without and with light irradiation; type: cell-based
Experimental: The cytotoxicity of (Mal-(CH2)2—N)C60 (hereafter, referred to as Compound A) obtained in Example 12 was evaluated by the viability of HeLa cells using an MTT assay (Carmichal, J., W. G. DeGraff, A. F.Gazdar, J. D. Minna and J. B. Mitchell, Cancer Res., 1987, 47, 936-942). HeLa cells (5×10^3 cells/well) were incubated in a Dulbecco's modified Eagle's medium (DMEM) containing 10% fetal bovine serum (FBS) on a 96-well plate in 5% CO2 at 37° C. for 24 hours. After washing with phosphate buffered saline (PBS), 100 μl of (Mal-(CH2)2—N) C60 (DMEM) (−) solution (25 μM) as a fullerene derivative of the present invention was added to the cells, which were incubated for two hours. The cells were washed with PBS, replaced with 100 μl of DMEM(+) and theie viability was measured using the MTT assay. The viability was determined by measuring the absorbance at 570 nm (OD570). […] The ratio was calculated by the following formula: Cell survival ratio (%)=(OD 570 in the presence of Compound A/OD 570 in the absence of Compound A)×100. A cell survival ratio of 100% means the absence of cytotoxicity.
HeLa cells (5×10^3 cells/well) were treated in the same the manner as in the above. Compound A was added to the cells and the resulting cell was irradiated with a 500 W halogen lamp for 8 minutes. After 24 hours' incubation, the supernatant was removed and formazan was dissolved in 100 μl of DMSO. Thereafter, the viability was determined by measuring the absorbance at 570 nm (OD570). […] The ratio was calculated by the following formula: Cell survival ratio (%)=(OD 570 in the presence of Compound A with irradiation/OD 570 in the absence of Compound A with irradiation)×100.
Evaluations were made in the same manner as in Test Example 2 except that each of (Mal-(CH2)2—N)C60 (Compound A) obtained in Example 12 and (D-Xyl-(CH2)2—N)C60(hereafter, referred to as Compound B) obtained in Example 14 was used in amounts 1, 5, 10, 25 and […]. The obtained results of the cytotoxicities of Compounds A and B are shown in FIGS. 2 and 3, respectively.

| Compound | Relative scale for φ^1O2 [1] | other results |
| --- | --- | --- |
| OCC1OC(OCCn2c3c4c5c6c7c8c9c%10c%11c%12c%13c%10c%10c8c8c%14c%10c%10c%13c%13c%15c%12c%12c%16c%11c%11c9c7c7c9c%11c%16c%11c%16c%12c%15c%12c%15c%13c%10c%10c%14c(c4c86)c4c%10c%15c6c%12c%16c8c%11c9c(c75)c3c8c6c42)C(O)C(O)C1O [(D-Gal-(CH2)2—N)C60, N-[2-(β-D-galactopyranosyloxy)ethyl][5,6]-azafulleroid] | 0.7 |  |
| OC1COC(OCCn2c3c4c5c6c7c8c9c%10c%11c%12c%13c%10c%10c8c8c%14c%10c%10c%13c%13c%15c%12c%12c%16c%11c%11c9c7c7c9c%11c%16c%11c%16c%12c%15c%12c%15c%13c%10c%10c%14c(c4c86)c4c%10c%15c6c%12c%16c8c%11c9c(c75)c3c8c6c42)C(O)C1O [(D-Xyl-(CH2)2—N)C60, N-[2-(β-D-xylopyranosyloxy)ethyl][5,6]-azafulleroid] | 0.3 |  |
| N, Nα-bis[2-(2,3,4,6-tetra-O-acetyl-β-D-glucopyranosyloxy)ethyl] [5,6]-diazafulleroid [(D-AcGlc-(CH2)2—N)2C60] | 0.5 |  |
| N, N′-bis [2-(2,3,4,6-tetra-O-acetyl-α-D-mannopyranosyloxy)ethyl] [5,6]-diazafulleroid [(D-AcMan-(CH2)2—N)2C60] | 0.7 |  |
| N, N′-bis[2-(2,3,4,6-tetra-O-acetyl-β-D-galactopyranosyloxy)ethyl] [5,6]-diazafulleroid [(D-AcGal-(CH2)2—N)2C60] | 0.5 |  |
| N, N′-bis[2-(2,3,6,8,9,13-hepta-O-acetyl-β-(α-D-glucopyranosyl (1-4)-D-glucopyranosyloxy)ethyl) [5,6]-diazafulleroid [(AcMal-(CH2)2—N)2C60] | 0.6 |  |
| N, N′-bis[2-(β-D-glucopyranosyloxy)ethyl][5,6]-diazafulleroid [(D-Glc-(CH2)2—N)2C60] | 0.6 |  |
| N,Nα-bis[2-(2,3,4-tri-O-acetyl-β-D-xylopyranosyloxy)ethyl] [5,6]-diazafulleroid [(D-AcXyl-(CH2)2—N)2C60] | 0.3 |  |
| N,N′-bis[2-(α-D-mannopyranosyloxy)ethyl] [5,6]-diazafulleroid [(D-Man-(CH2)2—N)2C60] | 0.5 |  |
| N,N′-bis[2-(β-(α-D-glucopyranosyl(1-4)-D-glucopyranosyloxy)ethyl) [5,6]-diazafulleroid [(Mal-(CH2)2—N)2C60] | 0.8 |  |
| N,N′-bis[2-(β-D-galactopyranosyloxy)ethyl] [5,6]-diazafulleroid [(D-Gal-(CH2)2—N)2C60] | 0.7 |  |
| N,N′-bis[2-(β-D-xylopyranosyloxy)ethyl] [5,6]-diazafulleroid [(D-Xyl-(CH2)2—N)2C60] | 0.3 |  |
| N-[2-(2,3,4,6-tetra-O-acetyl-α-D-mannopyranosyloxy)ethyl] [5,6]-azafulleroid [(D-AcMan-(CH2)2—N)C60] | 0.8 |  |
| N-[2-(2,3,4,6-tetra-O-acetyl-β-D-galactopyranosyloxy)ethyl] [5,6]-azafulleroid [(D-AcGal-(CH2)2—N)C60] | 0.7 |  |
| N-[2-(2,3,4,6-tetra-O-acetyl-β-D-glucopyranosyloxy)ethyl][5,6]-azafulleroid [(D-AcGlc-(CH2)2—N)C60] | 0.6 |  |
| N-[2-(2,3,4-tri-O-acetyl-β-D-xylopyranosyloxy)ethyl] [5,6]-azafulleroid [(D-AcXyl-(CH2)2—N)C60] | 0.4 |  |
| N-[2-(2,3,6,8,9,13-hepta-O-acetyl-β-(α-D-glucopyranosyl (1-4)-D-glucopyranosyloxy)ethyl) [5,6]-azafulleroid [(AcMal-(CH2)2—N)C60] | 0.7 |  |
| N-[2-(α-D-mannopyranosyloxy)ethyl] [5,6]-azafulleroid [(D-Man-(CH2—N)C60] | 0.5 |  |
| N-[2-(β-(α-D-glucopyranosyl(1-4)-D-glucopyranosyloxy)ethyl) [5,6]-azafulleroid [(Mal-(CH2)2—N)C60] | 0.7 | toxicity, share of the cells (photocytotoxicity) (HeLa cells; 10 μM, light irradiation as in Test Example 2, FIG. 2): about 50%; cytotoxicity (cell survival ratio) with light irradiation (HeLa cells; 25 μM, 500 W halogen lamp for 8 minutes, 24 hours' incubation, MTT OD570, FIG. 1): cytotoxicity is observed; cytotoxicity (cell survival ratio) without light irradiation (HeLa cells; 25 μM, two hours incubation, no light irradiation, MTT OD570, FIG. 1): cytotoxicity is not observed |
| N-[2-(β-D-glucopyranosyloxy)ethyl] [5,6]-azafulleroid [(D-Glc-(CH2)2—N)C60] | 0.6 |  |
